Measured values from ChEMBL document CHEMBL4837221 (Eur J Med Chem, 2021).
The source made the active and inactive calls. The calls are words filed in the database; no cut-off is given here.

What was measured:
U-251 [1] = assay: Cytotoxicity against human U-251 cells assessed as reduction in cell viability incubated for 72 hrs by MTT assay; format: functional, cell-based; details: U-251, 72 h
MDA-MB-231 = assay: Cytotoxicity against human MDA-MB-231 cells assessed as reduction in cell viability incubated for 72 hrs by MTT assay; format: functional, cell-based; details: MDA-MB-231, 72 h
A549 = assay: Cytotoxicity against human A549 cells assessed as reduction in cell viability incubated for 72 hrs by MTT assay; format: functional, cell-based; details: A549, 72 h
K562 = assay: Cytotoxicity against human K562 cells assessed as reduction in cell viability incubated for 72 hrs by MTT assay; format: functional, cell-based; details: K562, 72 h
[2] = Inhibition of rat liver TrxR using DTNB and NADPH as substrate preincubated for 10 mins followed by substrate addition; format: tissue-based
HepG2 = assay: Cytotoxicity against human HepG2 cells assessed as reduction in cell viability incubated for 72 hrs by MTT assay; format: functional, cell-based; details: HepG2, 72 h
[3] = Cytotoxicity against human U87/TMZ cells assessed as reduction in cell viability incubated for 72 hrs by MTT assay; format: functional, cell-based
U-251 [4] = assay: Induction of mitochondrial stress in human U-251 cells assessed as decrease in ATP production after 24 hrs by microplate reader analysis; format: functional, cell-based
C6 = assay: Cytotoxicity against rat C6 cells assessed as reduction in cell viability incubated for 72 hrs by MTT assay; format: functional, cell-based; details: C6, 72 h
[5] = Cytotoxicity against human SHG-44 cells assessed as reduction in cell viability incubated for 72 hrs by MTT assay; format: functional, cell-based; details: SHG-44, 72 h
U-251 [6] = assay: Inhibition of TrxR in human U-251 cells at 10 uM measured after 12 hrs by colorimetry; format: cell-based
[7] = Cytotoxicity against human […] cells assessed as reduction in cell viability incubated for 72 hrs by MTT assay; format: functional, cell-based
HUVEC = assay: Cytotoxicity against HUVEC cells assessed as reduction in cell viability incubated for 72 hrs by MTT assay; format: cell-based; details: Homo sapiens
U-251 [8] = assay: Inhibition of mitochondrial respiration in human U-251 cells assessed as reduction in oxygen consumption rate at 10 uM pretreated for 24 hrs with sequential addition of oligomycin, FCCP and antimycin-A by seahorse XFe96 analyser based assay; format: functional, cell-based
U-87 MG = assay: Cytotoxicity against human U87 cells assessed as reduction in cell viability incubated for 72 hrs by MTT assay; format: functional, cell-based, U-87MG ATCC

Work on `COc1cc(/C=C/C(=O)CC(=O)/C=C/c2ccc(O)c(OC)c2)ccc1O` [CURCUMIN] yielded an IC50 (U-251 [1]) of 25.8 µM, an IC50 (MDA-MB-231) of 31.4 µM and an IC50 (A549) of 24.2 µM. For the same molecule, the IC50 (K562) was 46.8 µM.

With `OCCCCCCCCCC[P+](c1ccccc1)(c1ccccc1)c1ccccc1` the IC50 [2] was > 100 µM, the IC50 (U-251 [1]) was > 100 µM and the IC50 (MDA-MB-231) was > 100 µM. For the same molecule, the IC50 (A549) was > 100 µM, the IC50 (HepG2) was > 100 µM and the IC50 (K562) was > 100 µM.

With `COc1cc(/C=C/C(=O)/C=C(O)/C=C/c2ccc(O)cc2)ccc1O` the IC50 [3] was 21.5 µM, the Activity (U-251 [4]) was “inactive” and the IC50 (C6) was 7.16 µM. For the same molecule, the IC50 [5] was 4.98 µM, the inhibition (U-251 [6]) was “Active” and the IC50 [7] was 17.3 µM. For the same molecule, the IC50 [2] was 0.77 µM, the IC50 (U-251 [1]) was 2.72 µM and the IC50 (HUVEC) was 32.6 µM. For the same molecule, the IC50 (MDA-MB-231) was 9.36 µM, the IC50 (A549) was 5.64 µM and the IC50 (HepG2) was 10.7 µM. For the same molecule, the Activity (U-251 [8]) was “inactive”, the IC50 (U-87 MG) was 5.45 µM and the IC50 (K562) was 3.86 µM.
